Laboratory results reported in patent US20110003892A1, “ALL-TRANS RETINOID ESTERS AS ACTIVE PHARMACEUTICAL INGREDIENTS, ORAL AND TOPICAL DOSAGE FORM COMPOSITIONS THEREOF, AND METHODS OF TREATING SKIN CONDITIONS THEREOF” (priority 2008, published 2011).

Key:
RARs = conditions: Repa J J et al., 1993; cited from earlier work
Rhino mice = test: Comedolytic effect in orally dosed Rhino mice (comedone area by histology); type: in vivo; conditions: oral treatment; for dose producing maximal reduction in comedone size as compared to the vehicle control: 24 days (FIG. 1); for reduction in comedone area: each retinoid alone, 24 days, various doses (FIG. 1)
Protocol: (§1) Animals and dose administration. Rhino mice 6-8 weeks old were orally dosed. The mice were dosed daily. The mice were weighed three times per week, and doses were adjusted weekly based on body weight. The oral formulation was made by mixing each API with Wesson® soybean oil. The oral dose was delivered to the back of the mouth of each mouse. Mice were sacrificed 4 hours after the final oral dose. At sacrifice, the dorsal skin was collected for histological studies.
Comedolytic effect. The extent of the comedolytic effect (i.e., efficacy) was assessed by measuring the average area of the comedones, whereby the smaller the area, the larger the effect and efficacy. The comedone area was determined by histological analysis of tissue sections. Skin was fixed overnight in 4% paraformaldehyde at 4° C. with gentle agitation, and the skin was dehydrated the next day in 100% methanol. Samples were embedded in paraffin and a qty. nine 10μ sections each spaced 150μ apart were prepared from each Rhino mouse. Five of the nine sections were digitally imaged (6× magnification) for comedone analysis using Metamorph Imaging Software (trace function).
The perimeter of each imaged comedone taken from the 5 sections was traced using a Wacom Intuos 3 Graphics Tablet interfaced with the software. The number of pixels representing each individual comedone area was obtained. The mean number of pixels per comedone was obtained for each Rhino mouse. For comedones that were completely healed (i.e., area=0), a pixel value approaching 0 (<10) was assessed. The individual comedone average for each mouse was used to calculate the treatment group mean. Results in the figures herein have been expressed in terms of mean±standard error of the mean.
Preparation of oral retinoid dosing formulations. A concentrated stock solution containing each retinoid was prepared in dichloromethane. The retinoid concentrated stock solution was diluted into ethanol. The concentration of retinoid in that diluted stock solution was determined spectrophotometrically, whereby the molar extinction coefficient=44,340 and λmax=350. The purity of the SB-RA, IPE-RA, IB-RA, and t-butyl RA was determined to be greater than 98% by HPLC. A predetermined volume of retinoid-containing solution was added to Wesson® oil, the sample was mixed, and the residual dichloromethane was removed by flushing the oil with argon for 2-3 hours under a vapor hood. The final dose was delivered orally using ≦50 μL of oil.

[1] = Body weight change from baseline in orally dosed Rhino mice; type: in vivo; conditions: oral treatment, 24 days, any dose of retinoid studied (FIG. 2)
Protocol: as §1

SMILES | binding to the RARs (RARs) | dose producing maximal reduction in comedone size as compared to the vehicle control (Rhino mice) [μmole/kgBW] | reduction in comedone area (Rhino mice) | % change from the starting baseline weight (overall group weight) [1]
CC1=C(/C=C/C(C)=C/C=C/C(C)=C\C(=O)O)C(C)(C)CCC1 [13-cis retinoic acid] | does not bind | – | – | –
CC1=C(/C=C/C(C)=C/C=C/C(C)=C/C(=O)OCC(C)C)C(C)(C)CCC1 [IB-RA, All-trans-retinoic acid iso-butyl ester] | – | 26.2 | significant dose-dependent reduction | no significant reduction
CC1=C(/C=C/C(C)=C/C=C/C(C)=C/C(=O)OC(C)C)C(C)(C)CCC1 [IPE-RA, all-trans-retinoic acid iso-propyl ester] | – | 26.2 | significant dose-dependent reduction | no significant reduction
CCC(C)OC(=O)/C=C(C)/C=C/C=C(C)/C=C/C1=C(C)CCCC1(C)C (stereo not drawn) [SB-RA, all-trans-retinoic acid sec-butyl ester] | – | 26.2 | significant dose-dependent reduction | no significant reduction
CC1=C(/C=C/C(C)=C/C=C/C(C)=C/C(=O)OC(C)(C)C)C(C)(C)CCC1 [t-butyl-RA, all-trans-retinoic acid tert-butyl ester] | – | 166 | significant dose-dependent reduction | no significant reduction
